The values that follow come from patent US20250195525A1, “ANGIOTENSIN II RECEPTOR ANTAGONIST FOR THE PREVENTION OF SYSTEMIC DISEASES IN CATS” (Boehringer Ingelheim Vetmedica GmbH, priority 2023, published 2025).

In data set [1] the test system is angiotensin II receptor 1. Put plainly: Angiotensin II induced blood pressure response in laboratory cats. The class given is in vivo, cat. The text has this:
Moreover, a study in laboratory cats was established to investigate the Angiotensin II induced increase in diastolic blood pressure prior to and after administration of telmisartan. This test was established to estimate the potency as well as the duration of action of sartans, in particular of telmisartan in cats.

The subject of another data set is cats with CKD. Put plainly: placebo controlled field trial in client-owned cats with CKD: progression of SBP. The format is in vivo, cat. The following applies: 1 mg/kg body weight. How it is done: This prospective, placebo controlled, randomized, double-blind, multicenter, multinational field study enrolled client-owned cats that were presented in the normal course of veterinary practice to evaluate safety and efficacy of telmisartan on progression-free survival time in cats with CKD compared to placebo. In this study 545 cats were randomly assigned to telmisartan (1 mg/kg body weight) or placebo in a ratio of 1:1.
At least two weeks before the start of the field study, creatinine value and Urine Specific Gravity (USG) were determined. Only cats were included in the study which were diagnosed with CKD, meaning a creatinine value ≥1.9 mg/dl (168 μmol/L) and <5.0 mg/dL (440 μmol/L) and a USG of <1.035.
At all visit timepoints, SBP was recorded prior to performing any other procedures scheduled for the animal during the visit. • 5 SBP readings were taken following a ≥10 minute acclimation period. • The highest and the lowest SBP were excluded and a mean of the remaining 3 SBPs was used to obtain the mean SBP for that visit. Visits were scheduled on Day 0, 30, 90, 180, 270, 365, 450, 540, 630, 730, 810, 900, 990, 1080, 1170, 1260, 1350, 1440 (each ±7) and, if applicable, additional visits every 3 months (+7 days).

For data set [2] the following is noted: cat, in vivo.
For data set [3] the following is noted: human patients, high dose of 160 mg daily (80 mg twice daily); cited from earlier work.

Consider `CCCc1nc2c(C)cc(-c3nc4ccccc4n3C)cc2n1Cc1ccc(-c2ccccc2C(=O)O)cc1` [Telmisartan, 4′-[2-n-propyl-4-methyl-6-(1-methylbenzimidazol-2-yl)-benzimidazol-1-ylmethyl]-biphenyl-2-carboxylic acid], for which, in data set [1] (cats, doses of less than 0.05 mg per kg body weight, majority of the tested cats), the “inhibition of the blood pressure response” value is “about 75%”. Further, the “diastolic blood pressure responses to increasing intravenous doses of Angiotensin II” value in data set [1] (laboratory cats, approximately 24 hours after the last oral dosing, target dose compared with Placebo) is reported as “significantly reduced”. Moreover, in the data set with cats with CKD, the “Time to event for progression of SBP (up to 160 mmHg), median no. of days” value was 446.0 days. In the data set on cats with CKD (compared to placebo), the “delay in reaching the endpoint of SBP of 160 mmHg versus placebo (median number of days)” value was 84.5 days. Moreover, the “Mean probability for progression of SBP” value in the data set on cats with CKD (progression = SBP ≥160 mmHg and increase of >20 mmHg compared to baseline) was determined as 0.035. The “mean V/f oral (second mention, after the intravenous values)” value in data set [2] amounted to 8.8 L/kg. The “mean V/f oral” value in data set [2] (po) came to 20.4 L/kg. For the same molecule, in data set [3], the “plasma level (Cmax±SD)” value is given as “about 2800±2400 ng/ml”. Further, the exposure (AUC) – broadly, the area under the concentration-time curve, a measure of exposure – is 385 ng·h/mL in “in vivo” (iv) and 150 ng·h/mL in the data set “in vivo” (po).
